Test results taken from PubChem BioAssay (NCI).
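How tested: cells in 96-well plates exposed to compound for 48 hours at five concentrations. GI50 marks 50% less growth. TGI denotes the concentration required for complete inhibition of growth.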

What was measured:
Assay in all cases: growth of human tumour cells (NCI), 48 h
HOP-62 NSCLC = test system: HOP-62 NSCLC
DU-145 prostate = test system: DU-145 prostate
NCI-H522 lung = test system: NCI-H522 lung
UACC-257 melanoma = test system: UACC-257 melanoma
EKVX NSCLC = test system: EKVX NSCLC
CAKI-1 renal = test system: CAKI-1 renal
SNB-19 CNS = test system: SNB-19 CNS
SN12C renal = test system: SN12C renal
NCI-H226 lung = test system: NCI-H226 lung
U251 CNS = test system: U251 CNS
MDA-MB-435 = test system: MDA-MB-435
SF-539 CNS = test system: SF-539 CNS
HCT-116 colon = test system: HCT-116 colon
HS 578T breast = test system: HS 578T breast
SK-OV-3 ovarian = test system: SK-OV-3 ovarian
KM12 colon = test system: KM12 colon
OVCAR-8 ovarian = test system: OVCAR-8 ovarian
A498 renal = test system: A498 renal
MDA-MB-231 breast = test system: MDA-MB-231 breast
786-0 renal = test system: 786-0 renal
MCF7 breast = test system: MCF7 breast
ACHN renal = test system: ACHN renal
SK-MEL-2 melanoma = test system: SK-MEL-2 melanoma
NCI-H460 lung = test system: NCI-H460 lung
IGROV1 ovarian = test system: IGROV1 ovarian
RPMI-8226 leukemia = test system: RPMI-8226 leukemia
T-47D breast = test system: T-47D breast
CCRF-CEM leukemia = test system: CCRF-CEM leukemia
SK-MEL-28 melanoma = test system: SK-MEL-28 melanoma

C=C1CC[C@@H]2[C@]3(C)COC(c4cn[nH]c4-c4ccccc4)O[C@@H]3CC[C@@]2(C)[C@@H]1C/C=C1/C(=O)OCC1O (stereo partly drawn)
GI50 (HOP-62 NSCLC): 16.1 µM
TGI (HOP-62 NSCLC): 35.6 µM
GI50 (DU-145 prostate): 13.8 µM
TGI (DU-145 prostate): 35.4 µM
GI50 (NCI-H522 lung): 14.1 µM
TGI (NCI-H522 lung): 29.8 µM
GI50 (UACC-257 melanoma): 15.6 µM
TGI (UACC-257 melanoma): 36.1 µM
GI50 (EKVX NSCLC): 14.5 µM
TGI (EKVX NSCLC): 32.7 µM
GI50 (CAKI-1 renal): 11.6 µM
TGI (CAKI-1 renal): 32.2 µM
GI50 (SNB-19 CNS): 15 µM
TGI (SNB-19 CNS): 28.5 µM
GI50 (SN12C renal): 22 µM
TGI (SN12C renal): 70 µM
GI50 (NCI-H226 lung): 16.1 µM
TGI (NCI-H226 lung): 37.8 µM
GI50 (U251 CNS): 14.3 µM
TGI (U251 CNS): 28.6 µM
GI50 (MDA-MB-435): 13.5 µM
TGI (MDA-MB-435): 29.8 µM
GI50 (SF-539 CNS): 15.6 µM
TGI (SF-539 CNS): 30.3 µM
GI50 (HCT-116 colon): 12.2 µM
TGI (HCT-116 colon): 32.2 µM
GI50 (HS 578T breast): 9.81 µM
TGI (HS 578T breast): 54.7 µM
GI50 (SK-OV-3 ovarian): 22 µM
TGI (SK-OV-3 ovarian): 63.5 µM
GI50 (KM12 colon): 11.3 µM
TGI (KM12 colon): 54.9 µM
GI50 (OVCAR-8 ovarian): 18 µM
TGI (OVCAR-8 ovarian): 49.6 µM
GI50 (A498 renal): 30.9 µM
TGI (A498 renal): > 100 µM
GI50 (MDA-MB-231 breast): 15.8 µM
TGI (MDA-MB-231 breast): 32.8 µM
GI50 (786-0 renal): 18.8 µM
TGI (786-0 renal): 43 µM
GI50 (MCF7 breast): 10.5 µM
TGI (MCF7 breast): 34.9 µM
GI50 (ACHN renal): 17.6 µM
TGI (ACHN renal): 69.1 µM
GI50 (SK-MEL-2 melanoma): 14.8 µM
TGI (SK-MEL-2 melanoma): 28.7 µM
GI50 (NCI-H460 lung): 15.3 µM
TGI (NCI-H460 lung): 32.3 µM
GI50 (IGROV1 ovarian): 17 µM
TGI (IGROV1 ovarian): 42.8 µM
GI50 (RPMI-8226 leukemia): 8.39 µM
TGI (RPMI-8226 leukemia): 93.8 µM
GI50 (T-47D breast): 20.2 µM
TGI (T-47D breast): > 100 µM
GI50 (CCRF-CEM leukemia): 4.83 µM
TGI (CCRF-CEM leukemia): 42.5 µM
GI50 (SK-MEL-28 melanoma): 13.7 µM
TGI (SK-MEL-28 melanoma): 26.8 µM
